In publication PMC11121381, “ABCG2 Mediates Resistance to the Dual EGFR and PI3K Inhibitor MTX-211 in Cancer Cells” (International Journal of Molecular Sciences, 2024):

Tests used:
[1] = molecular target: T1, ABCG2 (Homo sapiens, UniProt Q9UNQ0); experiment: vanadate-sensitive ATPase stimulation (endpoint Pi release) in ABCG2 membrane vesicles; supported by LC-MS/MS cell accumulation with and without Ko143; type: biochemical; conditions: read-out: % of basal ATPase activity (peak stimulation)
T1 construct: human ABCG2 in membrane vesicles of High-Five insect cells
T1 sequence (Q9UNQ0 1-655): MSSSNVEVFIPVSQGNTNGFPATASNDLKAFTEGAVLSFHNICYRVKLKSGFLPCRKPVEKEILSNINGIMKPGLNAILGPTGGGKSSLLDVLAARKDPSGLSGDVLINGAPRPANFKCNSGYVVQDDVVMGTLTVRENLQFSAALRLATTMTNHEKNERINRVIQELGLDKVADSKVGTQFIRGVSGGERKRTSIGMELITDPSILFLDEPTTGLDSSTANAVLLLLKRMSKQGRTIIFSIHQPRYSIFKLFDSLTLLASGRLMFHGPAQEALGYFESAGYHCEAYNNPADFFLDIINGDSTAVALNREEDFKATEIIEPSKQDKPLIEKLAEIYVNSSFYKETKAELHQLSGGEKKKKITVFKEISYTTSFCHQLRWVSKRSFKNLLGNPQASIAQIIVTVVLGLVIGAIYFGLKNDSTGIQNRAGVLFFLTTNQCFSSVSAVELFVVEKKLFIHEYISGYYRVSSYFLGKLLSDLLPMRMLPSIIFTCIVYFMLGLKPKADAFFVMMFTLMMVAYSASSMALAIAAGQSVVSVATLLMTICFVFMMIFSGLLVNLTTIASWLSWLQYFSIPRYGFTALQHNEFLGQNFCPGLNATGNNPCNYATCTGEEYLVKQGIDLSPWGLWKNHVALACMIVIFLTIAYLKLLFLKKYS

[2] = molecular target: T2, epidermal growth factor receptor (EGFR) (Homo sapiens, UniProt P00533); experiment: inhibition of EGF-induced EGFR phosphorylation (Tyr1068) in cells, immunoblot; type: cell-based
T2 construct: endogenous EGFR in S1 human colon cancer cells
T2 sequence (P00533 25-1210): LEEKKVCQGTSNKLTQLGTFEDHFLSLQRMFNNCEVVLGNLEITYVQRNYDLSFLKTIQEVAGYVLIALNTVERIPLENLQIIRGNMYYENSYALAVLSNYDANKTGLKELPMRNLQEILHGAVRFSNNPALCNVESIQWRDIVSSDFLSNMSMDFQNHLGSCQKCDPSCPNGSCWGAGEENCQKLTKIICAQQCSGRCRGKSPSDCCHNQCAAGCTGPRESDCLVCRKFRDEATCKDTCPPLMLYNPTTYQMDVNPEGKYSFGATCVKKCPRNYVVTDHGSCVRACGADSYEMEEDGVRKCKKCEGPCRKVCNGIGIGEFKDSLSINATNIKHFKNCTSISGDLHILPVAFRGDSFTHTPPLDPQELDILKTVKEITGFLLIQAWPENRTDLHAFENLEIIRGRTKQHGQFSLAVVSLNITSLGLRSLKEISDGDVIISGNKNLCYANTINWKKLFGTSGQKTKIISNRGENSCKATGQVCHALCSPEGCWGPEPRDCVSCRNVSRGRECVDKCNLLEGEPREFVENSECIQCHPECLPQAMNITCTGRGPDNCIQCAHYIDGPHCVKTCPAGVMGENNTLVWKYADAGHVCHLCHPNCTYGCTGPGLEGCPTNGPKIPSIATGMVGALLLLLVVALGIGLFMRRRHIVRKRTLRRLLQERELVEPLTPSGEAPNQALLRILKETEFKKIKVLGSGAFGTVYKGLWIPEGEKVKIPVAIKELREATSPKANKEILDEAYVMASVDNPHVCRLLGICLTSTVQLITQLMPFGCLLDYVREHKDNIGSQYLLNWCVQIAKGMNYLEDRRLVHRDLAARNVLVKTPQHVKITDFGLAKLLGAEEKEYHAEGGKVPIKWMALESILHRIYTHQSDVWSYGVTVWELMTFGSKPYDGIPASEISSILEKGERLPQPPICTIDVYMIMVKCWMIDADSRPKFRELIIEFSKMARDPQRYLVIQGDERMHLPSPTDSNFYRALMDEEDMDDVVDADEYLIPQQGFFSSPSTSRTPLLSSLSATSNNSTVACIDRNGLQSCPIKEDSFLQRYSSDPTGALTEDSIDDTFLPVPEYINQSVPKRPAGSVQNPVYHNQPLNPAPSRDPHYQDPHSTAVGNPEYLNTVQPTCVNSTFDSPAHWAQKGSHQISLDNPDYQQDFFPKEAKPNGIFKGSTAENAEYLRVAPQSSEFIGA

Emax [1]: 157%
IC50 [2]: 6.64 ± 1.27 µM
SMILES: CS(=O)(=O)Nc1cc(-c2ccc3ncnc(Nc4ccc(F)c(Cl)c4)c3c2)cnc1Cl [MTX-211]
